*1 amine or outer side, *2 acyl side, *3 side chain or, on linkers, in order; H or OH if unused. Where a SMILES comes first, the peptide text is derived from it. Side-chain parts run from the residue outwards. [ ]: non-standard residue; d: D form. The star is where a group is joined. PEG24 = NCCOCCOCCOCCOCCOCCOCCOCCOCCOCCOCCOCCOCCOCCOCCOCCOCCOCCOCCOCCOCCOCCOCCOCCOCCC(=O)O; Bip(2'-Et-4'-O(CH2)4NH2) = CCc1cc(OCCCCN[*:3])ccc1-c1ccc(C[C@H](N[*:1])C(=O)[*:2])cc1; Bip(2'-Et,4'-O(CH2)4N3) = CCc1cc(OCCCCN=[N+]=[N-])ccc1-c1ccc(C[C@H](N)C(=O)O)cc1; Bip(2'-Et,4'-O(CH2)4NH2) = CCc1cc(OCCCCN)ccc1-c1ccc(C[C@H](N)C(=O)O)cc1; X6 = O=C(NCCOCCOCCOCCOC(=O)*)OC[C@@H]1[C@@H]2CCc3[nH]nnc3CC[C@@H]21; Malonyl(2,2-Me2,histaminyl) = CC(C)(C(=O)NCCc1cnc[nH]1)C(=O)*; Nva(5-(3,5-Me2Ph)) = Cc1cc(C)cc(CCC[C@H](N)C(=O)O)c1; Ala(1H-tetrazol-5-yl) = N[C@@H](Cc1nnn[nH]1)C(=O)O; αMePhe(2-F) = C[C@](N)(Cc1ccccc1F)C(=O)O; DBCO = C1#Cc2ccccc2N(*)Cc2ccccc21; Suc = O=C(CCC(=O)[*:2])[*:1]; Aib = CC(C)(N)C(=O)O
Tests used:
HEK293/CRE-Luc cells = assay: cAMP responsive luciferase reporter assay, HEK293/CRE-Luc cells (no hGLP1R expression); assay type: cell-based, human
Source text: (§1) To test the activity of GLP1R agonist payloads, GLP1R agonist linker-payloads (LPs), and anti-GLP1R antibody tethered drug conjugates (ATDCs) of the disclosure, a cell-based cAMP responsive luciferase reporter assay was developed. To generate the assay cell line, the firefly luciferase gene was placed under the control of a cAMP response element (CRE) located upstream of a minimal promoter and transfected into HEK293 cells and referred to herein as HEK293/CRE-Luc cells.
(§2) Three-fold serial dilutions of free payloads or LPs were prepared in 100% DMSO, transferred to fresh assay media, and added to the cells at a final constant DMSO concentration of 0.2%. The last well in the plate served as a blank control containing only the assay media and 0.2% DMSO (untreated well) and was plotted as a continuation of the 3-fold serial dilution. Four to six hours later, luciferase activity was determined after the addition of One-Glo™ reagent (Promega, Cat #E6130) to each well. Relative light units (RLUs) were measured on an Envision luminometer (PerkinElmer) and EC50 values were determined using a four-parameter logistic equation over a 12-point dose response curve (GraphPad Prism). The signal to noise (S/N) was determined by taking the ratio of the highest RLU on the dose response curve to the RLU in the untreated wells.

human GLP1R = human GLP1R (Homo sapiens (Human), UniProt P43220); assay: cAMP responsive luciferase reporter assay, HEK293/CRE-Luc/hGLP1R cells; assay type: cell-based
Chain of human GLP1R (P43220 24-463): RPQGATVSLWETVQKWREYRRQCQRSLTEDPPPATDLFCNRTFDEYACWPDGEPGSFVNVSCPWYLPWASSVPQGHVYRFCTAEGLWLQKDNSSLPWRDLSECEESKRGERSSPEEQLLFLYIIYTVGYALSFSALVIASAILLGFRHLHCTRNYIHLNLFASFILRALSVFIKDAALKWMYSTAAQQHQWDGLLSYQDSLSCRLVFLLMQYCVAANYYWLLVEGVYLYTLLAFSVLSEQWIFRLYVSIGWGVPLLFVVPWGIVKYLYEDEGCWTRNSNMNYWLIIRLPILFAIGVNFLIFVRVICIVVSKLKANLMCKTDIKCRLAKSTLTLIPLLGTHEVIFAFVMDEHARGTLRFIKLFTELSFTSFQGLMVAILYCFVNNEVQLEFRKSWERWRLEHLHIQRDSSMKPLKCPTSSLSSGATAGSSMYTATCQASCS
Source text: as §1, §2
GLP1R agonist linker payloads were conjugated to anti-hGLP1R antibodies via N-terminal heavy or light chain Q tags. Several resulting anti-GLP1R antibody tethered drug conjugates (ATDCs) were tested for activity in the HEK293/CRE-Luc/hGLP1R reporter assay as described above for the free GLP1R payload and linker-payload agonists.

[1] = Plasma stability of payloads and linker-payloads, human plasma; assay type: in vitro ADME; conditions: for half-life at 2 µM: human, pooled plasma, pH 7.4, payload properties table, species not given, read-out: Plasma stability t½ (converted)
Procedure: The plasma stability of payloads and linker payloads of the disclosure were measured. For the assay, pooled frozen plasma (human, mouse or monkey) was thawed in cold water or a 37° C. water bath prior to experiment. Plasma was centrifuged at 4000 rpm for 5 min if any clots were observed, they were subsequently removed. If required, the pH was adjusted to 7.4±0.1. For the preparation of compounds and positive controls, a 1 mM intermediate solution was prepared by diluting 10 μL of their stock solution with 90 μL DMSO; a 1 mM intermediate solution of the positive control (Propantheline) was prepared by diluting 10 μL of its stock solution with 90 μL ultrapure water. […] 98 μL of plasma was spiked with 2 μL of dosing solution (100 μM) to achieve the final concentration of 2 μM in duplicate. Samples were then incubated at 37° C. in a water bath. […] At each time point, 400 μL of stop solution (200 ng/mL tolbutamide plus 200 ng/mL labetalol in 50% ACN/MeOH) was added to precipitate protein and mixed thoroughly. Sample plates were then centrifuged at 4,000 rpm for 10 min. An aliquot of supernatant (50 μL) was transferred from each well and mixed with 100 μL ultra-pure water. The samples were then shaken at 800 rpm for approximately 10 min before submitting for LC-MS/MS analysis.

[2] = relative to P8 of the same experiment
[3] = human plasma, tested for 7 days (D)
[4] = human plasma, tested for 3 days (C)
[5] = human plasma, tested for 1 day (A)

## CC[C@H](C)[C@H](NC(=O)[C@H](Cc1ccccc1)NC(=O)[C@H](CCC(=O)O)NC(=O)[C@H](CCCCN)NC(=O)[C@H](C)NC(=O)[C@H](C)NC(=O)[C@H](CCC(N)=O)NC(=O)CNC(=O)[C@H](CCC(=O)O)NC(=O)[C@H](CC(C)C)NC(=O)[C@H](Cc1ccc(O)cc1)NC(=O)[C@H](CO)NC(=O)[C@H](CO)NC(=O)[C@@H](NC(=O)[C@H](CC(=O)O)NC(=O)[C@H](CO)NC(=O)[C@@H](NC(=O)[C@H](Cc1ccccc1)NC(=O)[C@@H](NC(=O)CNC(=O)[C@H](CCC(=O)O)NC(=O)[C@H](C)NC(=O)[C@@H](N)Cc1c[nH]cn1)[C@@H](C)O)[C@@H](C)O)C(C)C)C(=O)N[C@@H](C)C(=O)N[C@@H](Cc1c[nH]c2ccccc12)C(=O)N[C@@H](CC(C)C)C(=O)N[C@H](C(=O)N[C@@H](CCCCN)C(=O)NCC(=O)N[C@@H](CCCNC(=N)N)C(N)=O)C(C)C [GLP1, Glucagon-like peptide 1, reference compound]
HEK293/CRE-Luc cells
  HEK293/CRE-LUC S/N: 1.3
HEK293/CRE-Luc cells; ATDCs, Table 12
  HEK293/CRE-Luc S/N: 1.4

## CCc1cc(OCCCCNC(=O)CCOCCOCCOCCOCCOCCOCCOCCOCCOCCOCCOCCOCCOCCOCCOCCOCCOCCOCCOCCOCCOCCOCCOCCOCCNC(=O)CCC(=O)N2Cc3ccccc3C#Cc3ccccc32)ccc1-c1ccc(C[C@H](NC(=O)[C@H](CC(=O)O)NC(=O)[C@H](CO)NC(=O)[C@@H](NC(=O)[C@](C)(Cc2ccccc2F)NC(=O)[C@@H](NC(=O)CNC(=O)[C@H](Cc2nn[nH]n2)NC(=O)C(C)(C)C(=O)NCCc2cnc[nH]2)[C@@H](C)O)[C@@H](C)O)C(=O)N[C@@H](CCCc2cc(C)cc(C)c2)C(N)=O)cc1 [LP4, DIBAC-suc-PEG24-P9] ({Malonyl(2,2-Me2,histaminyl)}-[Ala(1H-tetrazol-5-yl)]GT[αMePhe(2-F)]TSD[Bip(2'-Et-4'-O(CH2)4NH2)]([PEG24-Suc-DBCO])[Nva(5-(3,5-Me2Ph))]-NH2)
HEK293/CRE-Luc cells
  EC50: > 200 nM
  HEK293/CRE-LUC S/N: 1.7
Human GLP1R; highest RLU / RLU of untreated wells
  HEK293/CRE-LUC/hGLP1R S/N: 63.8
Human GLP1R; [2]
  HEK293/CRE-LUC/hGLP1R Relative Potency (% P8 EC50): 4.2%
  HEK293/CRE-LUC/hGLP1R Relative Signal:Noise (% P8): 97.1%

## CCc1cc(OCCCCn2cc(COCCOCCOCCOCCNC(=O)OC[C@@H]3[C@@H]4CCc5[nH]nnc5CC[C@@H]43)nn2)ccc1-c1ccc(C[C@H](NC(=O)[C@H](CC(=O)O)NC(=O)[C@H](CO)NC(=O)[C@@H](NC(=O)[C@](C)(Cc2ccccc2F)NC(=O)[C@@H](NC(=O)CNC(=O)[C@H](Cc2nn[nH]n2)NC(=O)C(C)(C)C(=O)NCCc2cnc[nH]2)[C@@H](C)O)[C@@H](C)O)C(=O)N[C@@H](CCCc2cc(C)cc(C)c2)C(N)=O)cc1 [LP24, triazole-BCN-PEG4-triazole-P8]
[1]; [3]
  Human plasma stability assay T½: >404.7 h

## CCc1cc(OCCCCNC(=O)OCCOCCOCCOCCNC(=O)OC[C@@H]2[C@@H]3CCc4[nH]nnc4CC[C@@H]32)ccc1-c1ccc(C[C@H](NC(=O)[C@H](CC(=O)O)NC(=O)[C@H](CO)NC(=O)[C@@H](NC(=O)[C@](C)(Cc2ccccc2F)NC(=O)[C@@H](NC(=O)CNC(=O)[C@H](Cc2nn[nH]n2)NC(=O)C(C)(C)C(=O)NCCc2cnc[nH]2)[C@@H](C)O)[C@@H](C)O)C(=O)N[C@@H](CCCc2cc(C)cc(C)c2)C(N)=O)cc1 [LP25, triazole-BCN-PEG4-carbamate-P9] ({Malonyl(2,2-Me2,histaminyl)}-[Ala(1H-tetrazol-5-yl)]GT[αMePhe(2-F)]TSD[Bip(2'-Et-4'-O(CH2)4NH2)](X6)[Nva(5-(3,5-Me2Ph))]-NH2)
[1]; [3]
  Human plasma stability assay T½: 284.8 h

## CCc1cc(OCCCCNC(=O)[C@H](CO)NC(=O)CNC(=O)CNC(=O)CNC(=O)CNC(=O)CCC(=O)N2Cc3ccccc3-c3nn[nH]c3-c3ccccc32)ccc1-c1ccc(C[C@H](NC(=O)[C@H](CC(=O)O)NC(=O)[C@H](CO)NC(=O)[C@@H](NC(=O)[C@](C)(Cc2ccccc2F)NC(=O)[C@@H](NC(=O)CNC(=O)[C@H](Cc2nn[nH]n2)NC(=O)C(C)(C)C(=O)NCCc2cnc[nH]2)[C@@H](C)O)[C@@H](C)O)C(=O)N[C@@H](CCCc2cc(C)cc(C)c2)C(N)=O)cc1 [LP26, triazole-DABAC- G4S-P9]
[1]; [3]
  Human plasma stability assay T½: >404.7 h

## CCc1cc(OCCCCn2cc(COCCOCCOCCOCCOCCOCCOCCOCCNC(=O)CCC(=O)N3Cc4ccccc4-c4nn[nH]c4-c4ccccc43)nn2)ccc1-c1ccc(C[C@H](NC(=O)[C@H](CC(=O)O)NC(=O)[C@H](CO)NC(=O)[C@@H](NC(=O)[C@](C)(Cc2ccccc2F)NC(=O)[C@@H](NC(=O)CNC(=O)[C@H](Cc2nn[nH]n2)NC(=O)C(C)(C)C(=O)NCCc2cnc[nH]2)[C@@H](C)O)[C@@H](C)O)C(=O)N[C@@H](CCCc2cc(C)cc(C)c2)C(N)=O)cc1 [LP28, triazole-DIBAC-suc-PEG8-triazole-P8]
[1]; human plasma, tested for 3 days (C), read-out: Human plasma stability assay T½
  half-life: > 173 h

## CCc1cc(OCCCCn2cc(COCCOCCOCCOCCOCCOCCOCCOCCN)nn2)ccc1-c1ccc(C[C@H](NC(=O)[C@H](CC(=O)O)NC(=O)[C@H](CO)NC(=O)[C@@H](NC(=O)[C@](C)(Cc2ccccc2F)NC(=O)[C@@H](NC(=O)CNC(=O)[C@H](Cc2nn[nH]n2)NC(=O)C(C)(C)NC(=O)[C@@H](N)Cc2ccc(O)cc2)[C@@H](C)O)[C@@H](C)O)C(=O)N[C@@H](CCCc2cc(C)cc(C)c2)C(N)=O)cc1 [LP29, NH2-PEG8-triazole-P19]
[1]; [4]
  Human plasma stability assay T½: >173.4 h

## CCc1cc(OCCCCn2cc(COCCOCCOCCOCCOCCOCCOCCOCCC(=O)N[C@@H](CC(C)C)C(=O)N3CCC[C@@H]3C(=O)N[C@@H](CCC(=O)O)C(=O)N[C@H](C(=O)NCC(=O)NCC(=O)O)[C@@H](C)O)nn2)ccc1-c1ccc(C[C@H](NC(=O)[C@H](CC(=O)O)NC(=O)[C@H](CO)NC(=O)[C@@H](NC(=O)[C@](C)(Cc2ccccc2F)NC(=O)[C@@H](NC(=O)CNC(=O)[C@H](Cc2nn[nH]n2)NC(=O)C(C)(C)C(=O)NCCc2cnc[nH]2)[C@@H](C)O)[C@@H](C)O)C(=O)N[C@@H](CCCc2cc(C)cc(C)c2)C(N)=O)cc1 [LP34, GGTEPL-PEG8- triazole-P8]
[1]; [4]
  Human plasma stability assay T½: >173.4 h

## CCc1cc(OCCCCN)ccc1-c1ccc(C[C@H](NC(=O)[C@H](CC(=O)O)NC(=O)[C@H](CO)NC(=O)[C@@H](NC(=O)[C@](C)(Cc2ccccc2F)NC(=O)[C@@H](NC(=O)CNC(=O)[C@@H](N)Cc2nn[nH]n2)[C@@H](C)O)[C@@H](C)O)C(=O)N[C@@H](CCCc2cc(C)cc(C)c2)C(N)=O)cc1 [P2]
[1]; human plasma, tested for 2 hrs (B)
  Human plasma stability assay T½: 10.74 h
[1]
  half-life at 2 µM: 10.7 h

## CCc1cc(OCCCCN)ccc1-c1ccc(C[C@H](NC(=O)[C@H](CC(=O)O)NC(=O)[C@H](CO)NC(=O)[C@@H](NC(=O)[C@](C)(Cc2ccccc2F)NC(=O)[C@@H](NC(=O)CNC(=O)[C@H](Cc2nn[nH]n2)NC(=O)C(C)(C)NC(=O)[C@@H](N)Cc2ccc(O)cc2)[C@@H](C)O)[C@@H](C)O)C(=O)N[C@@H](CCCc2cc(C)cc(C)c2)C(N)=O)cc1 [P19] (H-Y[Aib][Ala(1H-tetrazol-5-yl)]GT[αMePhe(2-F)]TSD[Bip(2'-Et,4'-O(CH2)4NH2)][Nva(5-(3,5-Me2Ph))]-NH2)
[1]; [5]
  Human plasma stability assay T½: >57.81 h
[1]
  half-life at 2 µM: > 57.8 h

## CCc1cc(OCCCCN=[N+]=[N-])ccc1-c1ccc(C[C@H](NC(=O)[C@H](CC(=O)O)NC(=O)[C@H](CO)NC(=O)[C@@H](NC(=O)[C@](C)(Cc2ccccc2F)NC(=O)[C@@H](NC(=O)CNC(=O)[C@H](Cc2nn[nH]n2)NC(=O)C(C)(C)C(=O)NCCc2cnc[nH]2)[C@@H](C)O)[C@@H](C)O)C(=O)N[C@@H](CCCc2cc(C)cc(C)c2)C(=O)O)cc1 [P41] ({Malonyl(2,2-Me2,histaminyl)}-[Ala(1H-tetrazol-5-yl)]GT[αMePhe(2-F)]TSD[Bip(2'-Et,4'-O(CH2)4N3)][Nva(5-(3,5-Me2Ph))]-OH)
[1]; [5]
  Human plasma stability assay T½: >57.81 h

Source: patent US20250161476A1 (REGENERON PHARMACEUTICALS, INC., priority 2020, published 2025)
